Laboratory results taken from paper PMC3920478, “Small molecule-mediated refolding and activation of myosin motor function” (eLife, 2014).

Experiments:
[1] = molecular target: Skeletal muscle myosin-2 (HMM); assay: Steady-state basal and actin-activated Mg2+-ATPase (NADH-coupled assay); assay type: biochemical, Rabbit
Protocol: (§1) Rabbit fast skeletal muscle heavy meromyosin (HMM) was prepared as described by [Margossian and Lowey (1982)]. Porcine β-cardiac myosin was prepared essentially as described by [Pant et al. (2009)] and [Jacques et al. (2008)] and further purified by gel filtration. S1 and HMM fragments were produced by proteolytic digestion of the full-length proteins with 0.05 mg/ml papain (10 min, 25°C) for S1 and with 0.1 mg/ml TLCK-treated α-chymotrypsin (15 min, 25°C) for HMM. Reactions were stopped with specific protease inhibitors for papain (10 µM E−64) and chymotrypsin (10 µM chymostatin, 1 mM benzamidine). Proteolytic fragments were further purified by actin-coprecipitation. Pellets were washed twice and myosin was extracted from the pellets using ATP containing buffer. Gel filtration was used to further increase purity of myosin S1 and HMM fragments. His-tagged motor domain constructs of Dd myosin-2, Dd myosin-1B, Dd myosin-1C, Dd myosin-1D, Dd myosin-1E, Dd myosin-5b fused to two Dd α-actinin repeats substituting the light-chain binding domains ([Anson et al., 1996]) were expressed in Dd AX3-ORF + cells and purified by Ni^2+-chelate affinity chromatography ([Manstein and Hunt, 1995]).
Basal and actin-activated Mg^2+-ATPase activities were measured using the NADH-coupled assay described previously ([Furch et al., 1998]) adapted for higher throughput screens for a temperature controlled plate reader (Multiscan FC, Thermo Scientific, Waltham, MA) at 25°C. […] Control measurements were carried out in the absence of drug, as well as in the presence of according concentrations of the non-binding (−)-enantiomer EMD 57439 to account for possible absorption effects. […] Data points are mean values from 3 to 5 independent experiments. Error bars indicate standard deviations.

[2] = test system: Dd myosin-1B, -1C, -1D, -1E motor domains; assay: as above; assay type: biochemical, Dictyostelium discoideum
Protocol: as §1, with “His-tagged motor domain constructs of Dd myosin-2, Dd myosin-1B, Dd myosin-1C, Dd myosin-1D, Dd myosin-1E, Dd myosin-5b fused to two Dd α-actinin repeats substituting the light-chain binding domains ([Anson et al., 1996]) were expressed in Dd AX3-ORF + cells and purified by Ni^2+-chelate affinity chromatography ([Manstein and Hunt, 1995]).” left out
Basal and actin-activated Mg^2+-ATPase activities were measured using the NADH-coupled assay described previously ([Furch et al., 1998]) adapted for higher throughput screens for a temperature controlled plate reader (Multiscan FC, Thermo Scientific, Waltham, MA) at 25°C. […]

Dd myosin-2 motor domain = molecular target: T1, Dd myosin-2 motor domain (Dictyostelium discoideum, UniProt P08799); assay: In vitro motility assay (actin filament sliding); assay type: biochemical
T1 sequence (P08799 1-761 limits assumed): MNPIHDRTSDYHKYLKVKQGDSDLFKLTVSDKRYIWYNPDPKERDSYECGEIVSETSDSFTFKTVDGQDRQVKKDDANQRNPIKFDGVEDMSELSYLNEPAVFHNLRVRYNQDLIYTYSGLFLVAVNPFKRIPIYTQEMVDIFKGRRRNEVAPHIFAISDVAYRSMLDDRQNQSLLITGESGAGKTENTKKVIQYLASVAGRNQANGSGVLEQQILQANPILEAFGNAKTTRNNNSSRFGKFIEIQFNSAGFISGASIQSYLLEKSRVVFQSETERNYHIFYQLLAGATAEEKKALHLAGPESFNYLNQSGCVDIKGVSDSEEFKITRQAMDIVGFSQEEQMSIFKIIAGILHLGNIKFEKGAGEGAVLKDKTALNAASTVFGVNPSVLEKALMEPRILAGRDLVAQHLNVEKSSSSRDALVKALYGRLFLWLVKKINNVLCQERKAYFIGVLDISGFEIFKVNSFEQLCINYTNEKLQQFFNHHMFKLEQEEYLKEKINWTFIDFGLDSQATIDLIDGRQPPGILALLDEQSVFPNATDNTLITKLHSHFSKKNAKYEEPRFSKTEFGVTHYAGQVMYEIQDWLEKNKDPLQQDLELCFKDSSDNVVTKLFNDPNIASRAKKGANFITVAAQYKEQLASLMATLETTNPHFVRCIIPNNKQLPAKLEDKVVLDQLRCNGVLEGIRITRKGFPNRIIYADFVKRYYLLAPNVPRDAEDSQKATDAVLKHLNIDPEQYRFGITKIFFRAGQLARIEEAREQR
Description: In addition, the fraction of moving filaments increased from <75% to >95%. […] In initial experiments, we determined the minimal concentration of α-actinin molecules that generate sufficient load to stall the movement of actin filaments for a given surface density of myosin heads. […] Next, we generated in vitro motility flow cells with actin filaments held at stall force. […] The time-dependence of the recovery of motile activity is best fit by a hyperbola. A plateau value of 0.4 μm s^−1 is reached after more than 2 hr (Figure 1G).
(§2) Actin-sliding motility was performed at 20°C using an Olympus IX81 (Olympus, Hamburg, Germany) inverted fluorescence microscope as described previously ([Fujita-Becker et al., 2005]). Average sliding velocities were determined from the Gaussian distribution of automatically tracked actin filaments using DiaTrack 3.01 (Semasopht, Chavannes, Switzerland) and Origin 7.0 (OriginLab Corporation, Northampton, MA). Errors indicate standard deviations.

Dd myosin-2 ΔSH3 = molecular target: T2, Dd myosin-2 ΔSH3 (Dictyostelium discoideum, UniProt P08799, DEL33-79); assay: In vitro motility assay (actin filament sliding); assay type: biochemical; conditions: 100 µM EMD 57033
T2 construct: Dd myosin-2 ΔSH3, a recombinant motor domain construct that lacks this subdomain; made in house
T2 sequence (P08799 other isoform, or with tags, fused parts or gaps DEL33-79): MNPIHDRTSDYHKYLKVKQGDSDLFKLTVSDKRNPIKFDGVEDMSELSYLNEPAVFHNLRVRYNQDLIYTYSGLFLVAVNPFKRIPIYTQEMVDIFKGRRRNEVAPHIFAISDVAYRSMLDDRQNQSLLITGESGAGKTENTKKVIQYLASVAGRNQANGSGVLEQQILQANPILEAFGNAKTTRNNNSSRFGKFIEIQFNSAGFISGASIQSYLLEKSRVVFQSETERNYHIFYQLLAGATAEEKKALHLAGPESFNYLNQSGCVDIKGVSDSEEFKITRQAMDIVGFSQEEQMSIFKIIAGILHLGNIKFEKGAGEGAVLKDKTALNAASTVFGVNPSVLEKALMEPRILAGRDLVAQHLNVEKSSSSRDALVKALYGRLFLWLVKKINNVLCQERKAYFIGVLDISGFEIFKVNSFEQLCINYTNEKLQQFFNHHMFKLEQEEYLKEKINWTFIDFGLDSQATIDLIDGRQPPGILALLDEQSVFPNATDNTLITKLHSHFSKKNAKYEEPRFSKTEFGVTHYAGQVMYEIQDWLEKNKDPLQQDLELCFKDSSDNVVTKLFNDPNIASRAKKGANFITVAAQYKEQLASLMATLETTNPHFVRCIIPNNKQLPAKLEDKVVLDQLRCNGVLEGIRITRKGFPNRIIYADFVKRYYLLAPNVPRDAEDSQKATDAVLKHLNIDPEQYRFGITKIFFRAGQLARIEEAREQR
Description: Initial blind docking to homology models of the β-cardiac myosin motor domain in the post-rigor state indicated preferred binding of the drug to a region near the small N-terminal, SH3-like βbarrel subdomain. Important contacts are predicted to involve the SH3-like subdomain (residues 34–72) and two α-helices (residues 20–28 and 98–111). […] The sets of binding poses differ mainly in the orientation of the dimethylated catechol group, occupying either of the two possible branches of the Y, while the thiadiazinone moiety appears little affected and resides in the root of the Y shaped cavity (Figure 2A,B). Potential residues involved in the binding of the thiadiazinone and tetrahydroquinoline moieties of the compound include Arg23, Asp85, Lys86, Asp107, Arg108, and Ser111. The dimethylated catechol moiety is mainly bound by residues Lys34, Lys48, and Gln79, and thus, interacts with the SH3-like β-barrel.
as §2

[3] = molecular target: T3, complex formed by the β-cardiac myosin motor domain with F-actin (Sus scrofa, UniProt P79293); assay: Melting curve by differential static light scattering; conditions: 100 µM EMD 57033
T3 construct: Melting curves of the complex formed by the β-cardiac myosin motor domain with F-actin; from tissue; host or cells: porcine cardiac muscle (myosin)
T3 sequence (P79293 1-843 limits assumed, one chain of several): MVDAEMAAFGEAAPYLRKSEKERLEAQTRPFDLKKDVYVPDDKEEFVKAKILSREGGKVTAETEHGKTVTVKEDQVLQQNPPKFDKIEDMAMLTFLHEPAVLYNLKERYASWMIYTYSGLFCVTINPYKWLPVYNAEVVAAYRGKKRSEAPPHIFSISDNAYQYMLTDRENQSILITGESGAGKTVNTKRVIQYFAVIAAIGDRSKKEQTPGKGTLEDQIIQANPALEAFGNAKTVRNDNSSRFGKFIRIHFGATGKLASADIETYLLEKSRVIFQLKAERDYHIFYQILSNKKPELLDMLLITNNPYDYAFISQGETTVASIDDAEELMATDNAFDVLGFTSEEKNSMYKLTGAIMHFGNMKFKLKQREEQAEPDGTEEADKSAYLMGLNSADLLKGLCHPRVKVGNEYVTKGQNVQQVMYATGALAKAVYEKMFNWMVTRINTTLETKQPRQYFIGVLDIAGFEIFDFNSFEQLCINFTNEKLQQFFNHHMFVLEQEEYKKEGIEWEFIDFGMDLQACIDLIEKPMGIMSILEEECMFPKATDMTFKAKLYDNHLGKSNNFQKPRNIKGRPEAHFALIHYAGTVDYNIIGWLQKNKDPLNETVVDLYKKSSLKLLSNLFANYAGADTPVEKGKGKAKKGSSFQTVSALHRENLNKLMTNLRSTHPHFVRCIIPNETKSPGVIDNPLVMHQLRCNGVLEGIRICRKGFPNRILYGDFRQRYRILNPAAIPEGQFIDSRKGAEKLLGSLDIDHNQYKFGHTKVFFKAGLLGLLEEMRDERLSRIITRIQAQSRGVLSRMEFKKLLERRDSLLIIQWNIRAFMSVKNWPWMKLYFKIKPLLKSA
Protocol: Circular dichroism and differential static light scattering experiments were performed to determine Tm.
Protein stability was assayed following protein aggregation associated with heat denaturation ([Senisterra et al., 2006]). Protein solutions were diluted to a concentration of 0.2 mg/ml in a buffer containing 5 mM KPi pH 7.5, 25 mM KCl and heated in steps of 0.6°C. Static light scattering was measured at each temperature step and the resulting transition curve was fitted by a Boltzmann function. The transition midpoint gives a measure for the aggregation temperature induced by protein denaturation.

## COc1ccc(C(=O)N2CCCc3cc(C4=NNC(=O)SC4C)ccc32)cc1OC (stereo not shown) [EMD 57033]
[1]
  AC50: 15.1 µM
  Activation potency relative to β-cardiac myosin (weaker): twofold
  Normalized maximal ATPase activation (basal): 1.6
[1]; 30 µM actin
  Normalized maximal ATPase activation (with 30 µM actin): 2.2
[2]
  Normalized maximal ATPase activation (basal): no effect
[2]; 30 µM actin
  Normalized maximal ATPase activation (with 30 µM actin): no effect
Dd myosin-2 motor domain; 100 µM EMD 57033
  Increase of actin filament sliding velocity: 1.6 fold
Dd myosin-2 motor domain; in presence of 100 µM EMD 57033
  Average sliding velocity of actin filaments: 1.35 ± 0.2 µm s^−1
Dd myosin-2 ΔSH3
  Actin filament sliding velocity enhancement: no actin filament sliding velocity enhancement was observed
[3]
  Tm (mid-point of transition): 66.4 ± 3 °C
